Patent US7759510B2, “Platinum complexes and methods of use” (University of South Florida, priority 2003, dated 2010)
Where two headings read alike, the source gives them in different places.

Tested on: A549 cells
Assay: MTT assay, percent survival of A549 cells
Assay type: cell-based
Conditions: A549; for IC50: Table 2, read-out: Calculated IC 50 (uM concentration)
Description: 1. Prepare a suspension of A549 cells at 2×10^5 cells per mL in supplemented DMEM/F12 growth medium.
2. Plate 2×10^4 cells per well in a 96 well cell culture plate by adding 100 μL of stock suspension to each well.
3. For each platinum compound (already in solution), prepare a readily usable stock solution in DMEM/F12 medium.
4. For each compound generate triplicate trials of 0, 10, 20, 30, 40, 50, 60, and 70 μM concentration. This is achieved in situ by adding appropriate volumes of stock solution to each well along with the volume of untreated medium necessary to generate the desired concentration in a final volume of 200 μL.
5. Gently agitate plates to mix contents. Incubate at 37° C., 7% CO2 for 45 hours.
6. Add 20 μL of 5 mg/mL MTT solution (in PBS) to each well.
7. Gently agitate plates to mix contents and incubate an additional 3 hours to allow product development.
8. Remove plates from incubator and agitate to cause settling of formazan product.
9. Aspirate out liquid contents of each well using needle and syringe and discard.
10. Add 200 μL DMSO to each well to dissolve formazan product.
11. Agitate plates until all of the formazan product is in solution and no purple crystals remain on the bottom surface of the wells.
12. Read the absorbance of each well at […] using Varian software for Cary 50 UV-vis Spectrophotometer with fiber optic probe accessory.
(§1) MTT assays are used for the quantitative determination of cellular proliferation and activation and for the quantitation of in vitro tumor cell sensitivity to anti-cancer compounds. The assay is based on the cleavage of the yellow tetrazolium salt MTT into purple colored formazan by metabolically active cells. Solubilized formazan product can be photometrically quantitated using an ELISA plate reader. A decrease in the number of living cells results in a decrease in total metabolic activity which leads to a decrease in color formation. Platinum complexes of the present invention were tested in MTT assays using A549 cells to determine anti-cancer cell activity. […] FIGS. 1, 2, and 4 show percent survival versus platinum complex concentration in graphical form.
as §1, with “FIGS. 8, 9,” for “FIGS. 1, 2,”, “and 11” for “and 4”

CC(C)(C(=O)O)C(O)(C(=O)O)C(C)(C)C(=O)[O][Pt]([NH2])([NH2])([Cl])([Cl])[N+](=O)[O-] (stereo not shown) [CPA-31]
Average Absorbance (Table 1, 10 μM): 2.4274 | Percent Survival (Table 1, 10 μM): 102.8080% | Average Absorbance (Table 1, 20 μM): 2.3495 | Percent Survival (Table 1, 20 μM): 99.5087% | Average Absorbance (Table 1, 30 μM): 2.3778 | Percent Survival (Table 1, 30 μM): 100.7073% | IC50 (extrapolated from incomplete data (10-40 uM; CPA-31 10-30 μM), outside the measured range): 506 µM | Average Absorbance (Table 3, 10 μM): 2.5294 | Percent Survival (Table 3, 10 μM): 103.5409% | Average Absorbance (Table 3, 20 μM): 2.3875 | Percent Survival (Table 3, 20 μM): 97.7322% | Average Absorbance (Table 3, 30 μM): 1.7978 | Percent Survival (Table 3, 30 μM): 73.5929% | Average Absorbance (Table 3, 40 μM): 0.8196 | Percent Survival (Table 3, 40 μM): 33.5503% | Average Absorbance (Table 3, 50 μM): 0.6049 | Percent Survival (Table 3, 50 μM): 24.7616% | Average Absorbance (Table 3, 60 μM): 0.6067 | Percent Survival (Table 3, 60 μM): 24.8352% | Average Absorbance (Table 3, 70 μM): 0.6228 | Percent Survival (Table 3, 70 μM): 25.4943%

N.N.[Cl][Pt][Cl] [Cis-Pt, Cis-diammineoplatinum(II) dichloride, reference compound]
Average Absorbance (Table 1, 10 μM): 2.3196 | Percent Survival (Table 1, 10 μM): 98.2423% | Average Absorbance (Table 1, 20 μM): 2.3228 | Percent Survival (Table 1, 20 μM): 98.3779% | Average Absorbance (Table 1, 30 μM): 2.3526 | Percent Survival (Table 1, 30 μM): 99.6400% | Average Absorbance (Table 1, 40 μM): 2.1315 | Percent Survival (Table 1, 40 μM): 90.2757% | Average Absorbance (Table 1, 50 μM): 1.8447 | Percent Survival (Table 1, 50 μM): 78.1288% | Average Absorbance (Table 1, 60 μM): 1.1039 | Percent Survival (Table 1, 60 μM): 46.7536% | Average Absorbance (Table 1, 70 μM): 0.7118 | Percent Survival (Table 1, 70 μM): 30.1470% | IC50 (linear trend from percent survival vs. concentration data of Table 1): 63.3 µM | Average Absorbance (Table 3, 10 μM): 2.4665 | Percent Survival (Table 3, 10 μM): 100.9661% | Average Absorbance (Table 3, 20 μM): 2.4556 | Percent Survival (Table 3, 20 μM): 100.5199% | Average Absorbance (Table 3, 30 μM): 2.2686 | Percent Survival (Table 3, 30 μM): 92.8650% | Average Absorbance (Table 3, 40 μM): 1.7575 | Percent Survival (Table 3, 40 μM): 71.9432% | Average Absorbance (Table 3, 50 μM): 1.2828 | Percent Survival (Table 3, 50 μM): 52.5114% | Average Absorbance (Table 3, 60 μM): 0.7971 | Percent Survival (Table 3, 60 μM): 32.6293% | Average Absorbance (Table 3, 70 μM): 0.6718 | Percent Survival (Table 3, 70 μM): 27.5001% | Average Absorbance (Table 4, 10 μM): 0.5299 | Percent Survival (Table 4, 10 μM): 83.1% | Average Absorbance (Table 4, 20 μM): 0.6575 | Percent Survival (Table 4, 20 μM): 103.1% | Average Absorbance (Table 4, 30 μM): 0.497 | Percent Survival (Table 4, 30 μM): 77.95% | Average Absorbance (Table 4, 40 μM): 0.4763 | Percent Survival (Table 4, 40 μM): 74.69% | Average Absorbance (Table 4, 50 μM): 0.3644 | Percent Survival (Table 4, 50 μM): 57.14% | Average Absorbance (Table 4, 60 μM): 0.2814 | Percent Survival (Table 4, 60 μM): 44.13% | Average Absorbance (Table 4, 70 μM): 0.1854 | Percent Survival (Table 4, 70 μM): 29.07% | Average Absorbance (Table 6, 10 μM): 2.3196 | Percent Survival (Table 6, 10 μM): 98.2423% | Average Absorbance (Table 6, 20 μM): 2.3228 | Percent Survival (Table 6, 20 μM): 98.3779% | Average Absorbance (Table 6, 30 μM): 2.3526 | Percent Survival (Table 6, 30 μM): 99.6400% | Average Absorbance (Table 6, 40 μM): 2.1315 | Percent Survival (Table 6, 40 μM): 90.2757% | Average Absorbance (Table 6, 50 μM): 1.8447 | Percent Survival (Table 6, 50 μM): 78.1288% | Average Absorbance (Table 6, 60 μM): 1.1039 | Percent Survival (Table 6, 60 μM): 46.7536% | Average Absorbance (Table 6, 70 μM): 0.7118 | Percent Survival (Table 6, 70 μM): 30.1470% | Average Absorbance (Table 8, 10 μM): 2.4665 | Percent Survival (Table 8, 10 μM): 100.9661% | Average Absorbance (Table 8, 20 μM): 2.4556 | Percent Survival (Table 8, 20 μM): 100.5199% | Average Absorbance (Table 8, 30 μM): 2.2686 | Percent Survival (Table 8, 30 μM): 92.8650% | Average Absorbance (Table 8, 40 μM): 1.7575 | Percent Survival (Table 8, 40 μM): 71.9432% | Average Absorbance (Table 8, 50 μM): 1.2828 | Percent Survival (Table 8, 50 μM): 52.5114% | Average Absorbance (Table 8, 60 μM): 0.7971 | Percent Survival (Table 8, 60 μM): 32.6293% | Average Absorbance (Table 8, 70 μM): 0.6718 | Percent Survival (Table 8, 70 μM): 27.5001% | Average Absorbance (Table 9, 10 μM): 0.5299 | Percent Survival (Table 9, 10 μM): 83.1% | Average Absorbance (Table 9, 20 μM): 0.6575 | Percent Survival (Table 9, 20 μM): 103.1096% | Average Absorbance (Table 9, 30 μM): 0.497 | Percent Survival (Table 9, 30 μM): 77.95% | Average Absorbance (Table 9, 40 μM): 0.4763 | Percent Survival (Table 9, 40 μM): 74.69% | Average Absorbance (Table 9, 50 μM): 0.3644 | Percent Survival (Table 9, 50 μM): 57.14% | Average Absorbance (Table 9, 60 μM): 0.2814 | Percent Survival (Table 9, 60 μM): 44.13% | Average Absorbance (Table 9, 70 μM): 0.1854 | Percent Survival (Table 9, 70 μM): 29.07%
